US6346532B1, “Amide derivatives or salts thereof” (Yamanouchi Pharmaceutical Co., Ltd., priority 1997, dated 2002)
Where a name gives a salt, the structure may show the parent alone.

Row | SMILES | melting point
1 | Cl.Cl.O=C(Cc1nccn1Cc1c(F)ccc(F)c1F)Nc1ccc(CCNC[C@H](O)c2ccccc2)cc1 | 213 to 217 °C
2 | O=C(Cc1nnnn1Cc1ccc(Cl)c(Cl)c1)Nc1ccc(CCNCC(O)c2ccccc2)cc1 (stereo not drawn) (as salt: hydrochloride) | 240 to 242 °C
3 | Cl.Cl.Nc1nc(C(=O)C(=O)Nc2ccc(CCNC[C@H](O)c3ccccc3)cc2)cs1 | 205 to 210 °C (dec.)
4 | CS(=O)(=O)Nc1nc(CC(=O)Nc2ccc(CCNC[C@H](O)c3ccccc3)cc2)cs1.Cl | 252 to 256 °C
5 | Cl.Cl.O=C(Cc1csc2nccn12)Nc1ccc(CCNC[C@H](O)c2ccccc2)cc1 | 161 to 162 °C
6 | Cl.O=C(CC1=NNN(Cc2ccc(Cl)c(Cl)c2)N1)Nc1ccc(CCNC[C@H](O)c2ccccc2)cc1 | 232 to 235 °C
7 | Cl.O=C(Cc1n[nH]c(S)n1)Nc1ccc(CCNC[C@H](O)c2ccccc2)cc1 | 210 to 213 °C
8 | Cl.Cl.O=C(Cc1nccn1Cc1cc(F)c(F)c(F)c1)Nc1ccc(CCNC[C@H](O)c2ccccc2)cc1 | 209 to 213 °C
9 | CC(=O)Nc1nc(CC(=O)Nc2ccc(CCNC[C@H](O)c3ccccc3)cc2)cs1.Cl | 242 to 245 °C
10 | Cl.O=C(Cn1cccn1)Nc1ccc(CCNC[C@H](O)c2ccccc2)cc1 | 229 to 232 °C
11 | Cl.Cl.N=C(N)Nc1nc(CC(=O)Nc2ccc(CCNC[C@H](O)c3ccccc3)cc2)cs1 | > 230 °C (dec.)
12 | Cl.Cl.Nc1nc(CC(=O)Nc2ccc(CCNC[C@H](O)c3ccccc3)cc2)ns1 | 244 to 246 °C
13 | O=C(Cc1ncccn1)Nc1ccc(CCNC[C@H](O)c2ccccc2)cc1 (as salt: hydrochloride) [Example 104, (R)-4′-[2-[(2-hydroxy-2-phenylethyl)amino]ethyl]-2-(2-pyrimidinyl]acetanilide hydrochloride] | 208 to 210 °C
14 | Cl.Cl.O=C(Cc1nccn1Cc1c(F)c(F)c(F)c(F)c1F)Nc1ccc(CCNC[C@H](O)c2ccccc2)cc1 | 190 to 193 °C
15 | Cl.Cl.O=C(Nc1ccc(CCNC[C@H](O)c2ccccc2)cc1)c1cccnc1 | 263 to 265 °C
16 | Cl.O=C(Cc1nnn[nH]1)Nc1ccc(CCNC[C@H](O)c2ccccc2)cc1 | 259 to 261 °C
17 | CCOC(=O)Nc1nc(CC(=O)Nc2ccc(CCNC[C@H](O)c3ccccc3)cc2)ns1.Cl | 205 to 208 °C
18 | Cl.Cl.O=C(Cc1ncc[nH]1)Nc1ccc(CCNC[C@H](O)c2ccccc2)cc1 | 203 to 207 °C
19 | Cl.Cl.O=C(Nc1ccc(CCNC[C@H](O)c2ccccc2)cc1)Nc1ccccn1 | 132 to 133 °C
20 | O=C(Nc1ccc(CCNCC(O)c2ccccc2)cc1)c1ccccn1 (stereo not drawn) (as salt: hydrochloride) | 223 to 225 °C
21 | Cl.Cl.O=C(Cc1nc[nH]n1)Nc1ccc(CCNC[C@H](O)c2ccccc2)cc1 | 221 to 224 °C
22 | Cl.O=C(Cc1ccccn1)Nc1ccc(CCNCC(O)c2ccccc2F)cc1 (stereo not drawn) | 194 to 196 °C
23 | Cl.Cl.O=C(Cn1cncn1)Nc1ccc(CCNC[C@H](O)c2ccccc2)cc1 | 237 to 240 °C

Further lines, results first:

Row | melting point | SMILES
24 | 223 to 224 °C | O=C(Cc1ccccn1)Nc1ccc(CCNCC(O)c2ccccc2)cc1 (stereo not drawn) (as salt: hydrochloride)
25 | 228 to 233 °C (dec.) | Cl.Cl.O=C(Cc1nc2ccccc2s1)Nc1ccc(CCNC[C@H](O)c2ccccc2)cc1
26 | 237 to 238 °C | Cl.O=C(Cc1cccc(OCc2ccccc2)n1)Nc1ccc(CCNC[C@H](O)c2ccccc2)cc1 [16]
27 | 222 to 224 °C | Cl.Cl.O=C(Cc1n[nH]c(SCc2ccccc2)n1)Nc1ccc(CCNC[C@H](O)c2ccccc2)cc1
28 | 140 to 143 °C | Cl.Cl.O=C(Cc1cn(Cc2ccccc2Cl)cn1)Nc1ccc(CCNC[C@H](O)c2ccccc2)cc1
29 | 214 to 216 °C | Cl.O=C(Cc1cccc(OCc2ccccc2)n1)Nc1ccc(CCNC[C@H](O)c2ccccc2)cc1 [60]
30 | 223 to 225 °C | Cl.O=C(Cc1ccccn1)Nc1ccc(CCNCC(O)c2ccc(F)cc2)cc1 (stereo not drawn)
31 | 222 to 225 °C | Cl.Cl.O=C(Cc1nccn1Cc1ccc(I)cc1)Nc1ccc(CCNC[C@H](O)c2ccccc2)cc1
32 | 233 to 235 °C | Cl.O=C(CC1=NNN(Cc2ccc(F)cc2)N1)Nc1ccc(CCNC[C@H](O)c2ccccc2)cc1
33 | 225 to 228 °C | Cl.O=C(Cc1nnnn1Cc1ccc(F)cc1)Nc1ccc(CCNC[C@H](O)c2ccccc2)cc1
34 | 234 to 235 °C | Cl.O=C(Cc1ccc2ccccc2n1)Nc1ccc(CCNC[C@H](O)c2ccccc2)cc1
35 | 140 to 143 °C | Cl.Cl.O=C(Cc1cn(Cc2cccc(Cl)c2)cn1)Nc1ccc(CCNC[C@H](O)c2ccccc2)cc1
36 | 195 to 198 °C | Cl.O=C(Cc1ccncc1)Nc1ccc(CCNC[C@H](O)c2ccccc2)cc1
37 | 236 to 238 °C | Cl.O=C(Cc1cccnc1)Nc1ccc(CCNC[C@H](O)c2ccccc2)cc1
38 | 139 to 141 °C | Cl.Cl.O=C(Cc1cn(Cc2ccccc2)cn1)Nc1ccc(CCNC[C@H](O)c2ccccc2)cc1
39 | 162 to 165 °C | Cl.Cl.Cl.O=C(Cc1nccn1-c1ccc2ccccc2n1)Nc1ccc(CCNC[C@H](O)c2ccccc2)cc1
40 | 204 to 207 °C | Cc1cn(Cc2ccc(F)cc2)c(CC(=O)Nc2ccc(CCNC[C@H](O)c3ccccc3)cc2)n1.Cl.Cl

Row | melting point | SMILES
41 | 221 to 223 °C | Cl.Cl.O=C(Cc1nccn1Cc1ccc(Br)cc1)Nc1ccc(CCNC[C@H](O)c2ccccc2)cc1
42 | 221 to 222 °C | Cl.O=C(Cc1ccccn1)Nc1ccc(CCNC[C@H](O)c2cccc(Cl)c2)cc1
43 | 225 to 226 °C | Cl.O=C(Cc1ccccn1)Nc1ccc(OCCNC[C@H](O)c2ccccc2)cc1
44 | 197 to 203 °C | Cl.Cl.O=C(Cc1nccn1Cc1ccc(C(F)(F)F)cc1)Nc1ccc(CCNC[C@H](O)c2ccccc2)cc1
45 | 219 to 223 °C | Cc1cnc(CC(=O)Nc2ccc(CCNC[C@H](O)c3ccccc3)cc2)n1Cc1ccc(F)cc1.Cl.Cl
46 | 214 to 215 °C | Cl.O=C(Cc1ccccn1)Nc1ccc(CCNCC(O)c2cccc(F)c2)cc1 (stereo not drawn)
47 | 158 to 165 °C | O=C(Cc1nc2ccccc2[nH]1)Nc1ccc(CCNC[C@H](O)c2ccccc2)cc1 [Example 91, (R)-2-(1H-benzimidazol-2-yl)-4′-[2-[(2-hydroxy-2-phenylethyl)amino]-ethyl]acetanilide]
48 | 237 to 243 °C | Cl.O=C(Cc1nccn1Cc1ccc([N+](=O)[O-])cc1)Nc1ccc(CCNC[C@H](O)c2ccccc2)cc1
49 | 248 to 251 °C | Cl.O=C(Cc1cccc(Cl)n1)Nc1ccc(CCNC[C@H](O)c2ccccc2)cc1
50 | 208 to 214 °C | Cl.Cl.O=C(Cc1nccn1-c1ccc2ccccc2c1)Nc1ccc(CCNC[C@H](O)c2ccccc2)cc1
51 | 202 to 204 °C | Cl.O=C(CCc1ccccn1)Nc1ccc(CCNC[C@H](O)c2ccccc2)cc1
52 | 150 to 152 °C | Nc1cccc(CC(=O)Nc2ccc(CCNCC(O)c3ccccc3)cc2)n1 (stereo not drawn) (as salt: hydrochloride)
53 | 233 to 234 °C | Cl.Cl.O=C(Cc1nccn1Cc1cccc(I)c1)Nc1ccc(CCNC[C@H](O)c2ccccc2)cc1
54 | 236 to 238 °C | O=C(Cc1cnccn1)Nc1ccc(CCNCC(O)c2ccccc2)cc1 (stereo not drawn) (as salt: hydrochloride)
55 | 216 to 217 °C | Cc1cccnc1CC(=O)Nc1ccc(CCNC[C@H](O)c2ccccc2)cc1.Cl
56 | 203 to 209 °C | O=C(Cc1nccn1Cc1ccc(Cl)cc1)Nc1ccc(CCNC[C@H](O)c2ccccc2)cc1 (as salt: hydrochloride) [Example 23, (R)-2-[1-(4-Chlorobenzyl)-1H-imidazol-2-yl]-4′-[2-[(2-hydroxy-2-phenylethyl)amino]ethyl]acetanilide dihydrochloride]
57 | 230 to 235 °C | Cl.Cl.O=C(Cc1nccn1Cc1ccc(F)cc1)Nc1ccc(CCNC[C@H](O)c2ccccc2)cc1
